Measured values reported in paper PMC6384738, “Structure-Function Studies of Polymyxin B Lipononapeptides” (Molecules, 2019).
≈ marks a conversion by molar mass, not a printed value. *1 amine or outer side, *2 acyl side, *3 side chain or, on linkers, in order; H or OH if unused. Where a SMILES comes first, the peptide text is derived from it. Bridges are numbered along the chain shown (N, C = ends). [ ]: non-standard residue; d: D form. The star is where a group is joined. NH(2-ClPh) = Clc1ccccc1N*; hSer = N[C@@H](CCO)C(=O)O; Octanoyl = CCCCCCCC(=O)*; Orn = NCCC[C@H](N)C(=O)O; Dab = NCC[C@H](N)C(=O)O; CO = O=C([*:1])[*:2]

Columns and labels:
K. pneumoniae ATCC 13833 = assay: microbe, parasite or virus in culture
Method: (§1) All compounds synthesised in this study were assessed for their minimum inhibitory concentrations (MIC, mg/L) by broth microdilution assay against five antibiotic-sensitive and resistant ATCC reference strains covering the Gram-negative ESKAPE pathogens (Escherichia coli, Klebsiella pneumoniae, A. baumannii, and P. aeruginosa) (Table 1, Table 2 and Table 3). Staphylococcus aureus was also included as a representative Gram-positive bacterial strain. […] Polymyxin B 1, colistin 2, vancomycin and gentamicin were used as positive inhibitor comparator compounds. Compounds were counter-screened against human proximal tubular epithelial cells (HK-2), using LDH release as a general indicator of cellular toxicity.

P. aeruginosa ATTC 27853 = assay: microbe, parasite or virus in culture
Method: as §1

E. coli ATCC 25922 = assay: microbe, parasite or virus in culture
Method: as §1

[1] = tested on: K. pneumoniae ATCC 700603; assay: microbe, parasite or virus in culture
Method: as §1

A. baumannii ATCC 19606 = assay: microbe, parasite or virus in culture
Method: as §1

K. pneumoniae BAA 2146 = assay: microbe, parasite or virus in culture
Method: as §1

S. aureus ATCC 25923 = assay: microbe, parasite or virus in culture
Method: as §1

in vitro = conditions: human
Method: as §1
Cytotoxicity to human kidney proximal tubular epithelial cell line, HK-2 (ATCC CRL-2190, sourced from ATCC; Manassas, VA, USA) was determined using the LDH assay as previously described. In brief, HK-2 cells were seeded as 2000 cells/well in black-walled clear bottom 384-well tissue culture treated plates (Corning, catalogue No. 3712) in DMEM/F12 medium (Gibco® 10565-042) containing 10% of Fetal Bovine Serum (FBS, Gibco® 10099-141) and incubated for 24 h at 37 °C, 5% CO2. Compounds were then added into each well with a concentration series from 300 µM to 2.3 µM in 2-fold dilutions. Colistin and polymyxin B were used as controls and tested at a final concentration range of 1 mM to 7.8 µM. The cells were incubated with the compounds for 24 h at 37 °C, 5% CO2. After the incubation, 5 µL of culture medium was added to 45 µL of LDH assay buffer (Biovision, K313-500) and incubated for 30 min at room temperature. The absorbance (ABS) was then read at 450 nm using a Polar Star Omega plate reader. The data was analysed by Prism 6 software (GraphPad Software, La Jolla, CA, USA). Results were calculated using the following equation: cytotoxicity %= (ABSsamples − ABSuntreated/ABS1%Triton X-100 − ABSuntreated) × 100.

Compound	MIC K. pneumoniae ATCC 13833 (K. pneumoniae ATCC 13833; ATCC 13833, 18 h) [µg/mL]	MIC P. aeruginosa ATTC 27853 (P. aeruginosa ATTC 27853; ATTC 27853, 18 h) [µg/mL]	MIC E. coli ATCC 25922 (E. coli ATCC 25922; ATCC 25922, 18 h) [µg/mL]	MIC K. pneumoniae ATCC 700603 ([1]; ATCC 700603, 18 h) [µg/mL]	MIC A. baumannii ATCC 19606 (A. baumannii ATCC 19606; ATCC 19606, 18 h) [µg/mL]	MIC K. pneumoniae BAA 2146 (K. pneumoniae BAA 2146; BAA 2146, 18 h) [µg/mL]	MIC S. aureus ATCC 25923 (S. aureus ATCC 25923; ATCC 25923, 18 h) [µg/mL]	MIC K. pneumoniae ATCC 13833 (K. pneumoniae ATCC 13833; broth microdilution, 18 h) [µg/mL]	MIC P. aeruginosa ATTC 27853 (P. aeruginosa ATTC 27853; broth microdilution, 18 h) [µg/mL]	MIC E. coli ATCC 25922 (E. coli ATCC 25922; broth microdilution, 18 h, 37 °C) [µg/mL]	MIC K. pneumoniae ATCC 700603 ([1]; ESBL strain, broth microdilution, 18 h) [µg/mL]	MIC A. baumannii ATCC 19606 (A. baumannii ATCC 19606; broth microdilution, 18 h) [µg/mL]	MIC K. pneumoniae BAA 2146 (K. pneumoniae BAA 2146; NDM-1 positive strain, broth microdilution, 18 h) [µg/mL]	MIC S. aureus ATCC 25923 (S. aureus ATCC 25923; Gram-positive strain, broth microdilution, 18 h) [µg/mL]	CC50 at 24 h (in vitro) [µM]
CC(C)C[C@@H]1NC(=O)[C@@H](Cc2ccccc2)NC(=O)[C@H](CCN)NC(=O)[C@@H](NC(=O)[C@H](CCN)NC(=O)[C@@H](NC(=O)Nc2ccccc2Cl)[C@@H](C)O)CCNC(=O)[C@H]([C@@H](C)O)NC(=O)[C@H](CCN)NC(=O)[C@H](CCN)NC1=O [Compound 15] ({NH(2-ClPh)-CO}-T[Dab][Dab][Dab][dF]L[Dab][Dab]T; lactam 3-C)	–	–	–	–	–	–	–	>32	1 (≈ 0.895 µM)	32 (≈ 28.7 µM)	32 (≈ 28.7 µM)	>32	32 (≈ 28.7 µM)	>32	206
CCCCCCCC(=O)N[C@H](C(=O)N[C@@H](CCN)C(=O)N[C@H]1CCCNC(=O)[C@H]([C@@H](C)O)NC(=O)[C@H](CCN)NC(=O)[C@H](CCN)NC(=O)[C@H](CC(C)C)NC(=O)[C@@H](Cc2ccccc2)NC(=O)[C@H](CCN)NC1=O)[C@@H](C)O [Compound 17] (Octanoyl-T[Dab][Orn][Dab][dF]L[Dab][Dab]T; lactam 3-C)	32 (≈ 29 µM)	2 (≈ 1.81 µM)	2 (≈ 1.81 µM)	16 (≈ 14.5 µM)	>32	16 (≈ 14.5 µM)	>32	–	–	–	–	–	–	–	88
CCCCCCCC(=O)N[C@H](C(=O)N[C@@H](CCN)C(=O)N[C@H]1CCCCNC(=O)[C@H]([C@@H](C)O)NC(=O)[C@H](CCN)NC(=O)[C@H](CCN)NC(=O)[C@H](CC(C)C)NC(=O)[C@@H](Cc2ccccc2)NC(=O)[C@H](CCN)NC1=O)[C@@H](C)O [Compound 18] (Octanoyl-T[Dab]K[Dab][dF]L[Dab][Dab]T; lactam 3-C)	>32	16 (≈ 14.3 µM)	16 (≈ 14.3 µM)	>32	>32	>32	>32	–	–	–	–	–	–	–	88

Now from value to compound, other results behind:

MIC K. pneumoniae ATCC 13833 (K. pneumoniae ATCC 13833; ATCC 13833, 18 h) [µg/mL]	MIC P. aeruginosa ATTC 27853 (P. aeruginosa ATTC 27853; ATTC 27853, 18 h) [µg/mL]	MIC E. coli ATCC 25922 (E. coli ATCC 25922; ATCC 25922, 18 h) [µg/mL]	MIC K. pneumoniae ATCC 700603 ([1]; ATCC 700603, 18 h) [µg/mL]	MIC A. baumannii ATCC 19606 (A. baumannii ATCC 19606; ATCC 19606, 18 h) [µg/mL]	MIC K. pneumoniae BAA 2146 (K. pneumoniae BAA 2146; BAA 2146, 18 h) [µg/mL]	MIC S. aureus ATCC 25923 (S. aureus ATCC 25923; ATCC 25923, 18 h) [µg/mL]	Compound	MIC K. pneumoniae ATCC 13833 (K. pneumoniae ATCC 13833; broth microdilution, 18 h) [µg/mL]	MIC P. aeruginosa ATTC 27853 (P. aeruginosa ATTC 27853; broth microdilution, 18 h) [µg/mL]	MIC E. coli ATCC 25922 (E. coli ATCC 25922; broth microdilution, 18 h, 37 °C) [µg/mL]	MIC K. pneumoniae ATCC 700603 ([1]; ESBL strain, broth microdilution, 18 h) [µg/mL]	MIC A. baumannii ATCC 19606 (A. baumannii ATCC 19606; broth microdilution, 18 h) [µg/mL]	MIC K. pneumoniae BAA 2146 (K. pneumoniae BAA 2146; NDM-1 positive strain, broth microdilution, 18 h) [µg/mL]	MIC S. aureus ATCC 25923 (S. aureus ATCC 25923; Gram-positive strain, broth microdilution, 18 h) [µg/mL]	CC50 at 24 h (in vitro) [µM]
>32	16 (≈ 14.9 µM)	4 (≈ 3.72 µM)	>32	32 (≈ 29.7 µM)	16 (≈ 14.9 µM)	>32	CCCCCCCC(=O)N[C@H](C(=O)N[C@H](CO)C(=O)N[C@H]1CCNC(=O)[C@H]([C@@H](C)O)NC(=O)[C@H](CCN)NC(=O)[C@H](CCN)NC(=O)[C@H](CC(C)C)NC(=O)[C@@H](Cc2ccccc2)NC(=O)[C@H](CCN)NC1=O)[C@@H](C)O [Compound 36] (Octanoyl-T[dS][Dab][Dab][dF]L[Dab][Dab]T; lactam 3-C)	–	–	–	–	–	–	–	213
>32	>32	16 (≈ 14.7 µM)	>32	>32	>32	>32	CCCCCCCC(=O)N[C@H](C(=O)N[C@@H](CCO)C(=O)N[C@H]1CCNC(=O)[C@H]([C@@H](C)O)NC(=O)[C@H](CCN)NC(=O)[C@H](CCN)NC(=O)[C@H](CC(C)C)NC(=O)[C@@H](Cc2ccccc2)NC(=O)[C@H](CCN)NC1=O)[C@@H](C)O [Compound 37] (Octanoyl-T[hSer][Dab][Dab][dF]L[Dab][Dab]T; lactam 3-C)	–	–	–	–	–	–	–	271
